Data published in ChEMBL document CHEMBL1201862, “PubChem BioAssay data set” (2004).
Active and inactive are the calls of the source.

Experiments:
Mucolipin-3 = biological target: T1, Mucolipin-3 (Homo sapiens, UniProt Q8TDD5); assay: Dose response cell-based high-throughput screening assay for agonists of the transient receptor potential channel ML3 (TRPML3). [Related pubchem assays: 1526, 1424, 1448 ]; format: functional
T1 sequence (Q8TDD5 whole entry): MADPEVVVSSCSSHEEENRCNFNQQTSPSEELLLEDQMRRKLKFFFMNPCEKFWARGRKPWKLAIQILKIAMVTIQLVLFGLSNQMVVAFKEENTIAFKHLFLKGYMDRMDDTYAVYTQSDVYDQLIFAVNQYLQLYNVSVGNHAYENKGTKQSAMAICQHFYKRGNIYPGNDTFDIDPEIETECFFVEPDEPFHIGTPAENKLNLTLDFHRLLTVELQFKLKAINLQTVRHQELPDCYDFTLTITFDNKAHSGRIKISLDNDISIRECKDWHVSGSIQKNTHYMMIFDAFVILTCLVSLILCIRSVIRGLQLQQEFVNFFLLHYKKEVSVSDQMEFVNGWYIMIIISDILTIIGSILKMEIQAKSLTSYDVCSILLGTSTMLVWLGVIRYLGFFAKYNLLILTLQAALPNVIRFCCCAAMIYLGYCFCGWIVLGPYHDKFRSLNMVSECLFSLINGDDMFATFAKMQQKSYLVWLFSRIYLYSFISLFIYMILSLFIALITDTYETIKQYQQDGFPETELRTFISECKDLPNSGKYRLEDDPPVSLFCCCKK

Ion channel NompC [1] = biological target: T2, Ion channel NompC (Danio rerio, UniProt Q7T1G6); assay: TRPML3 and TRPML2 channel agonists, cell-based, patch clamp, Fura-2 profiling panel, panel member TRPN1 Dose Response (AID 2116)
Ion channel NompC [2] = biological target: T2, Ion channel NompC; assay: Fluorescence counterscreen assay for TRPML3 agonists: dose response cell-based high-throughput screening assay to identify agonists of the transient receptor potential channel N1 (TRPN1). [Related pubchem assays: 1526, 1424, 1448 ]; format: functional
Procathepsin L = Procathepsin L (Homo sapiens, UniProt P07711)
Aspartyl aminopeptidase = biological target: T3, Aspartyl aminopeptidase (Plasmodium falciparum 3D7, UniProt Q8I2J3)
T3 sequence (Q8I2J3 whole entry): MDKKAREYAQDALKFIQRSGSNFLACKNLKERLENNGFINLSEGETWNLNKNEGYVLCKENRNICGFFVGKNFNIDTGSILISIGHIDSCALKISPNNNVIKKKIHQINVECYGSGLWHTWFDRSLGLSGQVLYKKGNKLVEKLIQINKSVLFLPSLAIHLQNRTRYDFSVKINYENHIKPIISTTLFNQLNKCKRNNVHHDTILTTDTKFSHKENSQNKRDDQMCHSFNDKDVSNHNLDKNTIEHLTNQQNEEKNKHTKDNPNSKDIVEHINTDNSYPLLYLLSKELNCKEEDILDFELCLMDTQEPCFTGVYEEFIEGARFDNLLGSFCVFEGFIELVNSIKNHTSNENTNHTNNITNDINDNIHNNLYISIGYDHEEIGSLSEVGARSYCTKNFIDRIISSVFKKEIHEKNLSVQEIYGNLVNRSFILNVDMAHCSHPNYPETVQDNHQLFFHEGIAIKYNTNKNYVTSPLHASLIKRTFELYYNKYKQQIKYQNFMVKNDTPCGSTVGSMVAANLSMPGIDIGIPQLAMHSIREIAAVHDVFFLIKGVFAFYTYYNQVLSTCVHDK

H9c2 = assay: cells; format: functional, cell-based; conditions: Rattus norvegicus, H9c2, Myocardium
[3] = Artemis endonuclease inhibitor potency, dose response, biochemical, fluorescence intensity (AID 720701); format: functional;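 further: Artemis endonuclease enzyme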
[4] = HepG2 cell cytotoxicity, dose response, cytotoxicity control, ATP luminescence, cherry-pick, set 6 (AID 1053125); format: functional, cell-based
[5] = biological target: T4, Zinc finger protein mex-5 (Caenorhabditis elegans, UniProt Q9XUB2); assay: MEX-5/TCR-2 RNA interaction inhibitors, dose response, biochemical, C. elegans, fluorescence polarization (AID 1960)
T4 sequence (Q9XUB2 whole entry): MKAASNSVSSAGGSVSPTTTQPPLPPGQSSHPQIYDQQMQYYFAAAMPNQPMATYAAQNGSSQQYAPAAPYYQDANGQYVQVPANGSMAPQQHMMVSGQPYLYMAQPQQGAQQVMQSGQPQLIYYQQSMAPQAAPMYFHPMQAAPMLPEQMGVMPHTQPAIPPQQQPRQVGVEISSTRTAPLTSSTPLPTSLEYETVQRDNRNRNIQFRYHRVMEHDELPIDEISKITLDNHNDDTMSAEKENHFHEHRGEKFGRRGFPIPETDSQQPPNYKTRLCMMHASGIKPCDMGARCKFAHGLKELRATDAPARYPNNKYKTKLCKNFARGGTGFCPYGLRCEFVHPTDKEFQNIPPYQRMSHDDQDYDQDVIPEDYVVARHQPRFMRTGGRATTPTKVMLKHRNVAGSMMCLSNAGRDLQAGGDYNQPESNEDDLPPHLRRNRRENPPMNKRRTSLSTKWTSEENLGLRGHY

cells [6] = conditions: HEK293
HT-1080 = assay: cytotoxicity in HT1080 fibrosarcoma cells, cell-based, fluorescence readout (AID 620); format: functional; conditions: Homo sapiens
cells [7] = conditions: A549
[8] = biological target: Luciferin 4-monooxygenase (Photinus pyralis, UniProt P08659); assay: Counter Screen for Luciferase-based Assay Positives. [Related pubchem assays: 620, 618, 411 ]
ORF 73 = ORF 73 (Human herpesvirus 8, UniProt O40947); assay: inhibitors of C-LANA binding to LBS DNA, dose response, biochemical, fluorescence polarization, cherry-picked samples (AID 504725); set-up: species or system Human gammaherpesvirus 8;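 further: fluorescence polarization of a labeled DNA duplex reporting LANA DNA binding; potency is for inhibitors that block LANA binding to the DNA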
[9] = biological target: T5, RNA-binding protein pos-1 (Caenorhabditis elegans, UniProt G5EF15); assay: inhibitors of POS-1/mex-3 RNA binding, dose response, biochemical, fluorescence polarization (AID 1964);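 further: purified POS-1 fused to maltose binding protein made in E. coli; potency of compounds blocking POS-1 binding to fluorescent RNA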
T5 sequence (G5EF15 whole entry): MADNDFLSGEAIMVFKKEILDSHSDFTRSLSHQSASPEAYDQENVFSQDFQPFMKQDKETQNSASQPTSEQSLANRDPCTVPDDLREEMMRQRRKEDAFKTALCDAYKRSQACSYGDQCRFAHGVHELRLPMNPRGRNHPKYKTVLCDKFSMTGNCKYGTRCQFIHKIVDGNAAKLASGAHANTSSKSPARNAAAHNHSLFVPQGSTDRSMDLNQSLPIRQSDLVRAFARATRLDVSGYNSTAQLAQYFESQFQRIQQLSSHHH

HeLa = assay: HeLa cell cytotoxicity, dose response, cytotoxicity control, 24 h, cherry-picked samples (AID 504726); format: functional, cell-based; conditions: Homo sapiens;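 further: potency for cytotoxicity as loss of luminescence signal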
[10] = biological target: T6, Microphthalmia-associated transcription factor (Homo sapiens, UniProt O75030); assay: TRPM1 promoter luciferase signal decrease, dose response, MITF inhibitor project, cell-based, SK-MEL-5, cherry-picked, set 3 (AID 493073); format: functional
T6 sequence (O75030 whole entry): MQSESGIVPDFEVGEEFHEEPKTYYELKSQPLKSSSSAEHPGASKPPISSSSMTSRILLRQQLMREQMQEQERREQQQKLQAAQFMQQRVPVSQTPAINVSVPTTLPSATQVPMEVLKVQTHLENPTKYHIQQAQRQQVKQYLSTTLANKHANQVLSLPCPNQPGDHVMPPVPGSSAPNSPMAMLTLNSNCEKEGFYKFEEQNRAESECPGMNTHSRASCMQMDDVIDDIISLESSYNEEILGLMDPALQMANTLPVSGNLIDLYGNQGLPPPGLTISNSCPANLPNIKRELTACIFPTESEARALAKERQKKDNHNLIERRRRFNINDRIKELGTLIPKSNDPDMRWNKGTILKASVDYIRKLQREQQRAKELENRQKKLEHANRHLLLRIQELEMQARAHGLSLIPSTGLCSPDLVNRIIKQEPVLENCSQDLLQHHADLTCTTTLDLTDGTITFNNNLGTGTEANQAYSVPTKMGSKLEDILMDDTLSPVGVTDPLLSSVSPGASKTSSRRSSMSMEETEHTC

Salmon testes DNA = assay: DNA intercalators displacing acridine orange, dose response, artefact control for KSHV LANA DNA-binding inhibitor project, biochemical, fluorescence polarization, cherry-picked samples, set 2 (AID 504727); set-up: species or system Salmonidae
Cytochrome P450 2C9 = Cytochrome P450 2C9 (Homo sapiens, UniProt P11712); conditions: Potency
Streptokinase A = biological target: T7, Streptokinase A (Streptococcus pyogenes serotype M1, UniProt P10520); assay: S. pyogenes streptokinase expression inhibitors, potency, dose response, plasminogen activation absorbance, OD405 (AID 1914); format: functional, Streptococcus pyogenes M1 GAS;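 further: secreted streptokinase activity via plasminogen activation per viability signal from cell pellet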
T7 sequence (P10520 whole entry): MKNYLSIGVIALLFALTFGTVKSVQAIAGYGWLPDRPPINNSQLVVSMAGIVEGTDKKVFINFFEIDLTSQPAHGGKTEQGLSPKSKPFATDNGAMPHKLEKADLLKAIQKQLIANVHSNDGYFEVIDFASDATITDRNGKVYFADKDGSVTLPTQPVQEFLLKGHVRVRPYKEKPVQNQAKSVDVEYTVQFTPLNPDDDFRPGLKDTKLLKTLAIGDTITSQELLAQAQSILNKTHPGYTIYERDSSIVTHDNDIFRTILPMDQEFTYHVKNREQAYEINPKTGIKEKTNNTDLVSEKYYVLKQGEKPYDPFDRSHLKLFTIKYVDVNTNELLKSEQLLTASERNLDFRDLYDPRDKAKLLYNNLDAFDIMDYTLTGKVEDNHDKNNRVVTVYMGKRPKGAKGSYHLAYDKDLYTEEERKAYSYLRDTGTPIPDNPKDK

Streptococcus [11] = assay: Group A Streptococcus viability loss, dose response, counter-screen for streptokinase expression inhibitor project, luminescence, BacTiterGlo (AID 1915); format: functional, organism-based;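 further: potency for reduction of bacterial viability or growth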
Streptococcus [12] = assay: Luminescence Microorganism-Based Dose Response Follow up to Identify Compounds Cytotoxic to Streptococcus. [Related pubchem assays: 1677 (Project Summary), 1915, 1914, 1902 (Retest at Dose), 1900 (Counter Screen), 1662 (Primary HTS)]; format: functional, organism-based
[13] = tested on: Streptococcus sp. 'group A'; assay: growth inhibition of control SK(-) GAS strain, dose response, counter-screen for streptokinase expression inhibitor project, luminescence, kanamycin, BacTiterGlo, confirmation (AID 1900); format: functional, organism-based
[14] = biological target: T8, Neuropeptides B/W receptor type 1 (Homo sapiens, UniProt P48145); assay: GPR7 antagonist potency, late-stage follow-up, cell-based, fluorescence, dose response (AID 463251); format: functional
T8 sequence (P48145 whole entry): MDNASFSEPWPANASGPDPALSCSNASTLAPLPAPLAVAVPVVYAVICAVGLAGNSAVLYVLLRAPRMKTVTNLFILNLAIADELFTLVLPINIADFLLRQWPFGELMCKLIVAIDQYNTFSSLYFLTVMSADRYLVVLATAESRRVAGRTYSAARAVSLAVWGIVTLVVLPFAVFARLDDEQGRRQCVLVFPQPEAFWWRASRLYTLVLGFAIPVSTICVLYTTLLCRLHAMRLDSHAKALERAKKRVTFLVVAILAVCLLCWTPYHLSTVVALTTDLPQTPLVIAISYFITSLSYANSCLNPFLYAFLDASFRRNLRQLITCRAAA

[15] = biological target: Melanin-concentrating hormone receptor 1 (Homo sapiens, UniProt Q99705); assay: Late-stage fluorescence-based counterscreen for antagonists of the G-protein coupled receptor 7 (GPR7): cell-based dose response assay to identify antagonists of the melanin-concentrating hormone receptor 1 (MCHR1). [Related pubchem assays (depositor defined):AID1861, AID1880, AID1952, AID2148, AID2251, AID2257, AID485339]; format: functional;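 further: stimulated with 30 nM MCH peptide agonist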
[16] = biological target: NACHT, LRR and PYD domains-containing protein 3 (Homo sapiens, UniProt Q96P20); assay: NALP3 inhibitors in yeast, dose response, luminescent (AID 488799); format: functional
[17] = biological target: NAD-dependent protein deacylase sirtuin-5, mitochondrial (Homo sapiens, UniProt Q9NXA8); assay: SIRT5 desuccinylase inhibitors, dose response, biochemical, fluorescence imaging, cherry-pick, set 5 (AID 720591);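 further: desuccinylation of succinyl peptide AMC substrate read as fluorescence after trypsin release; potency of inhibitors that lower fluorescence and may act on trypsin instead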
[18] = biological target: Peroxisome proliferator-activated receptor gamma/Nuclear receptor corepressor 2 (Homo sapiens, UniProt P37231+Q9Y618); format: functional
[19] = biological target: Photoreceptor-specific nuclear receptor (Homo sapiens, UniProt Q9Y5X4); format: functional;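 further: potency for compounds that break the NR2E3 corepressor complex and count as activators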

T2 sequence (Q7T1G6 whole entry): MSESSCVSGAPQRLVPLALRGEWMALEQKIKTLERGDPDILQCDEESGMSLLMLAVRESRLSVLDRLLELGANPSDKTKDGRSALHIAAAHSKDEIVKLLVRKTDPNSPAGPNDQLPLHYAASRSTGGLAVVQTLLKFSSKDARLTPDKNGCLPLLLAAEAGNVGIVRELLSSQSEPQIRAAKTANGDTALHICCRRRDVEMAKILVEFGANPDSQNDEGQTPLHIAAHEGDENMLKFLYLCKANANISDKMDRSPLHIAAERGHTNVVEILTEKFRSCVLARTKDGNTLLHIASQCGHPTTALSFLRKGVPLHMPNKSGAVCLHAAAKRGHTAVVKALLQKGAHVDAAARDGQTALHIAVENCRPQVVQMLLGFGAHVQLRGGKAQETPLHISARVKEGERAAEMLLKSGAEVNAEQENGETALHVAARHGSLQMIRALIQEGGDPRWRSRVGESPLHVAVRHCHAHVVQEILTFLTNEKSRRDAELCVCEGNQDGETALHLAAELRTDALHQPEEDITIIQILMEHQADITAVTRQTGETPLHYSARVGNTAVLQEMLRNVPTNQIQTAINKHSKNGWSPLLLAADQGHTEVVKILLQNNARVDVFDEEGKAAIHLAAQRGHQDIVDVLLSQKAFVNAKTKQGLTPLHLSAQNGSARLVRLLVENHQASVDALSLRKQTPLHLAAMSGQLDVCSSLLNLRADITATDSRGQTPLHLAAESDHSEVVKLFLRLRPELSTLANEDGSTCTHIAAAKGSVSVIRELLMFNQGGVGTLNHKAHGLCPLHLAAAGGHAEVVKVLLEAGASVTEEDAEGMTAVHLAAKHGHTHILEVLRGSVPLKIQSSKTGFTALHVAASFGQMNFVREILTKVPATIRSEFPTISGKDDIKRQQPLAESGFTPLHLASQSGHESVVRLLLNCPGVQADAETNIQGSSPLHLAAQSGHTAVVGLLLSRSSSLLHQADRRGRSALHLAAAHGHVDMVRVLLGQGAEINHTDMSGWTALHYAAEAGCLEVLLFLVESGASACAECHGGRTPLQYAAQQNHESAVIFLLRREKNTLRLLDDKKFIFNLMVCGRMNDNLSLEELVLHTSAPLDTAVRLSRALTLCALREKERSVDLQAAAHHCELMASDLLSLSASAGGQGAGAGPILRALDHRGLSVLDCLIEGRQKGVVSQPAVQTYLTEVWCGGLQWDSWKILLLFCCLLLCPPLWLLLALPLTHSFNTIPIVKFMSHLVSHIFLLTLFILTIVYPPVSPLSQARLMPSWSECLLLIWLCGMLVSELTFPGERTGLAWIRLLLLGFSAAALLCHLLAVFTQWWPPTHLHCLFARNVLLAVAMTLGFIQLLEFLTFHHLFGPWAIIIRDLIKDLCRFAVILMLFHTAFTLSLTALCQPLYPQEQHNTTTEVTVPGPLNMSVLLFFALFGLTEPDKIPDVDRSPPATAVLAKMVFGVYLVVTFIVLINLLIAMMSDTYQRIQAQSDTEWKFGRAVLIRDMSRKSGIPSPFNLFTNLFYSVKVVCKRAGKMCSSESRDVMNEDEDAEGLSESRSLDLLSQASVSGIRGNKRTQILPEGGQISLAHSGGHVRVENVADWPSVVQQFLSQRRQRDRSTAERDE
Procathepsin L, sequence (P07711 whole entry): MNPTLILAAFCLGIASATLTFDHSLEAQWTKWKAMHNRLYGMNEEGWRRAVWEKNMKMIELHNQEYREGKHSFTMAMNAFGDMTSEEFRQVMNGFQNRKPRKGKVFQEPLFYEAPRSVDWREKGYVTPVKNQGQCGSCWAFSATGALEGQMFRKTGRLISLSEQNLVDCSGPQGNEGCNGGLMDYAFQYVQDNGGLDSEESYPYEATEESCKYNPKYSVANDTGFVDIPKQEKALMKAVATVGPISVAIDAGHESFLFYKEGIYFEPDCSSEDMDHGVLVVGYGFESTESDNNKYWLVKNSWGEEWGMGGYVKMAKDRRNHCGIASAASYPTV
Melanin-concentrating hormone receptor 1, sequence (Q99705 whole entry, the tested form may be a part): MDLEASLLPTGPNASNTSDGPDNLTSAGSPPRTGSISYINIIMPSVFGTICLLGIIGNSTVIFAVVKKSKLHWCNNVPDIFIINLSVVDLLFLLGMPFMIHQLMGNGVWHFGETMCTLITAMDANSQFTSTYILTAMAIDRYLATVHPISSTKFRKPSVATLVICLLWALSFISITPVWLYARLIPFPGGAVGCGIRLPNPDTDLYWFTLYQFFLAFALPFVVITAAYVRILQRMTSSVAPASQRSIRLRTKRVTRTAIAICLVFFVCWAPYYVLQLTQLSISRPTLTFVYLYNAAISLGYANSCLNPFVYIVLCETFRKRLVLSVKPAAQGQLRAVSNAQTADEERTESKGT
NAD-dependent protein deacylase sirtuin-5, mitochondrial, sequence (Q9NXA8 whole entry): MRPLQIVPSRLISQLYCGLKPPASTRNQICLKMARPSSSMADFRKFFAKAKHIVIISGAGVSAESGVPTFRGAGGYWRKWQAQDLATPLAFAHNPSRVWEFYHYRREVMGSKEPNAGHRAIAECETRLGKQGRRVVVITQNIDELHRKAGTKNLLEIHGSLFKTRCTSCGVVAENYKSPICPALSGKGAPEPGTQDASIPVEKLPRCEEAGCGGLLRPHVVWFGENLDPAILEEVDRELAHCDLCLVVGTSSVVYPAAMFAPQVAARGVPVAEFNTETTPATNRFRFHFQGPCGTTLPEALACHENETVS
NACHT, LRR and PYD domains-containing protein 3, sequence (Q96P20 whole entry, the tested form may be a part): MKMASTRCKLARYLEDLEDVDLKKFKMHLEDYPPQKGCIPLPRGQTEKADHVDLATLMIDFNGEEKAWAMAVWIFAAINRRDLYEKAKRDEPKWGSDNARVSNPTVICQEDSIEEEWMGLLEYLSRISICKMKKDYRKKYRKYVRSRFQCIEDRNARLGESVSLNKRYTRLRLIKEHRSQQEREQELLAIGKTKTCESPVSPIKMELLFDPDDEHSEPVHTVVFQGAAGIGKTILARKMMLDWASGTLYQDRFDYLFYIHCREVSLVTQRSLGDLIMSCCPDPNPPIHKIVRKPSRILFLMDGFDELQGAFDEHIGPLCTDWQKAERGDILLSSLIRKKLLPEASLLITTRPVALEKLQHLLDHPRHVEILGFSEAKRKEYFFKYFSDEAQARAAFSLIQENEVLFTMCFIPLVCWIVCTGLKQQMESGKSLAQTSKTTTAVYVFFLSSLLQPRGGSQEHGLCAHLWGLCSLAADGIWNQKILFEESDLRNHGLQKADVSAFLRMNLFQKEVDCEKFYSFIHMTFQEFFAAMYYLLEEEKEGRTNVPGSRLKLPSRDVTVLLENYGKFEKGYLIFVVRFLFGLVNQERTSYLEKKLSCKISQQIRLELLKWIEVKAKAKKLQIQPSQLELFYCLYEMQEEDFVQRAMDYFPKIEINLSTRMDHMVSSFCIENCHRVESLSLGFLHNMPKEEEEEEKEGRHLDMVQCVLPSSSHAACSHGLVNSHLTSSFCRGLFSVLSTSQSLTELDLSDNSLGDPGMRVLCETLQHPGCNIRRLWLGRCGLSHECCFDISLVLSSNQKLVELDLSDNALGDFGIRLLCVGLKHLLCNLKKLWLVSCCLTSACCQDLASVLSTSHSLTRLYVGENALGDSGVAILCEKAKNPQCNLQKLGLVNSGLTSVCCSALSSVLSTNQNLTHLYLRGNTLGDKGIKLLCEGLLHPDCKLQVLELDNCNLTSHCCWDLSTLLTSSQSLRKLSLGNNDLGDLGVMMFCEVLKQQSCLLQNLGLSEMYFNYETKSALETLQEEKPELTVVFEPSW
Cytochrome P450 2C9, sequence (P11712 whole entry): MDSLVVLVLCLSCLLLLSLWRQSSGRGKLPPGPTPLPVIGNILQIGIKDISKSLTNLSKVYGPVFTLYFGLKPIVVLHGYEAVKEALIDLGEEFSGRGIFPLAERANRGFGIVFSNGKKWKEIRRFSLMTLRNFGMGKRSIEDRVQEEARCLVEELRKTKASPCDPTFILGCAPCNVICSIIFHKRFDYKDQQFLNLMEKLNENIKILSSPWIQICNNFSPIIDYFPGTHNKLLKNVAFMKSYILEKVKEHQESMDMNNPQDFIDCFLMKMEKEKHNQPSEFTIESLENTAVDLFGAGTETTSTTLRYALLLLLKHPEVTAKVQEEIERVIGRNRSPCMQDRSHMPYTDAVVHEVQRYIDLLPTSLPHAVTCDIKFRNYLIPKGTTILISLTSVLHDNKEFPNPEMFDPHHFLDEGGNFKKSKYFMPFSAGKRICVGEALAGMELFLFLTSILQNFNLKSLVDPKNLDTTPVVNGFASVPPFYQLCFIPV
Luciferin 4-monooxygenase, sequence (P08659 whole entry): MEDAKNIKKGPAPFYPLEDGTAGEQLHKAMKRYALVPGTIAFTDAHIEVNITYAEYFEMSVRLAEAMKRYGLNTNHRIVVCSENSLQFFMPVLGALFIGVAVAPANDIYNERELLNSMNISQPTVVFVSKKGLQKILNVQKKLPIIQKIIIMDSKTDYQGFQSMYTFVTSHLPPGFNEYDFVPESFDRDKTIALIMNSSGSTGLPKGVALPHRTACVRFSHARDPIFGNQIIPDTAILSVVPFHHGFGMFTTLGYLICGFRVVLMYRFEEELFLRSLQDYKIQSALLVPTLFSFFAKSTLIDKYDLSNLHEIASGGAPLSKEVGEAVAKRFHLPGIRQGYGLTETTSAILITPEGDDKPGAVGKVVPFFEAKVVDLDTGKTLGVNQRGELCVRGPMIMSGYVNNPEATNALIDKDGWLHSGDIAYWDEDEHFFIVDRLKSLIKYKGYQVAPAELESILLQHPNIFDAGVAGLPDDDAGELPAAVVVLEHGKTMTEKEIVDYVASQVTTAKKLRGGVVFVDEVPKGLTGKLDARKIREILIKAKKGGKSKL

## O=S(=O)(Nc1ccccc1N1CCOCC1)c1ccc(Cl)s1
Mucolipin-3
  EC50: 1.36 µM (active)
Ion channel NompC [1]
  EC50: > 29.9 µM (inactive)
Ion channel NompC [2]
  EC50: > 29.9 µM (not active)

## CCOC(=O)Cc1csc(NC(=O)NC2(C(F)(F)F)Oc3ccccc3O2)n1
Procathepsin L
  IC50: > 59.6 µM (not active)
Aspartyl aminopeptidase
  IC50: 3.02 µM (active)
H9c2
  IC50: 17.5 µM (active)

## c1ccc(-c2cn3nc4c(nc3n2)CCCC4)cc1
[3]
  IC50: > 20 µM (inactive)
[4]
  AC50: > 52 µM (inactive)
[5]
  EC50: 10.6 µM (active)
Cells [6]
  AC50: 12.7 µM (active)
HT-1080
  EC50: > 50 µM (not active)
Cells [7]
  AC50: 15.8 µM (active)
[8]
  EC50: 0.29 µM (active)
ORF 73
  AC50: 94.3 µM (active)
[9]
  EC50: 14.3 µM (active)
HeLa
  AC50: 31.1 µM (active)
[10]
  AC50: 5.89 µM (active)
Salmon testes DNA
  AC50: 169 µM (active)

## CC(C)C[C@@H](CC(=O)N[C@H](CC(=O)N[C@@H]1CCCC[C@H]1C(=O)N[C@H](CC(=O)N[C@@H](CCC(=O)O)CC(=O)O)CC(C)C)C(C)C)NC(=O)[C@@H]1CCCC[C@H]1N
Cytochrome P450 2C9
  AC50: 39.8 µM (inconclusive)

## FC(F)(F)c1cc(-c2ccco2)nc(NCc2ccc(Cl)cc2)n1
Streptokinase A
  EC50: 9.32 µM (active)
Streptococcus [11]
  EC50: > 150 µM (not active)
Streptococcus [12]
  EC50: 9.49 µM (active)
[13]
  EC50: 8.27 µM (active)

## Cc1ccc(-n2ncc(Cl)c(Oc3ccc(OC(F)(F)F)cc3)c2=O)cc1
[14]
  IC50: 0.88 µM (active)
[15]
  IC50: 2.9 µM (active)

## O=C(NCCCc1ccccc1)c1c(O)nc2sccn2c1=O
[16]
  IC50: 9.61 µM (active)

## Cc1cc(N2C(=O)C(O)=C(C(=O)c3cc4ccccc4o3)C2c2ccc(Br)cc2)no1 (stereo unspecified)
[17]
  AC50: 17.5 µM (active)
[18]
  IC50: 2.92 µM (active)
Streptococcus [11]
  EC50: 2.78 µM (active)
[13]
  EC50: 2.01 µM (active)
[19]
  IC50: > 39.8 µM (not active)
